From US20260250318A1, “COMPOSITIONS AND METHODS FOR CROSSING THE BLOOD BRAIN BARRIER” (VOYAGER THERAPEUTICS, INC., priority 2022, published 2026)

System: brain
Assay: Maturation of TTM-001 capsid, NGS enrichment in brain of CD-1 Outbred mice
Format: in vivo
Conditions: NGS fold-enrichment of TTM-001 matured AAV capsid variants in the brain of CD-1 Outbred mice; intravenous 1.0×10^12 VG/dose; 14 days in life; RNA; relative to non-matured TTM-001 control
Procedure, shortened: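 Brain enrichment read by NGS after RNA extraction and RT-PCR, expressed as fold ratio over the matching parental capsid (TTM-001 or TTM-002). Libraries, mutated around loop IV positions 449/450–466, were injected intravenously (tail vein, 1.0×10^12 VG/dose) into three female CD-1 mice; brains harvested at 14 days.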

Row | Sequence | Fold enrichment over TTM-001
1 | KTINGSGSPHSKARLQQT | 2.089 fold
2 | KTINGSGSPHSKARLRQT | 4.155 fold
3 | KTINGSGSPHSKARLTQT | 2.223 fold
4 | KTINGSGSPHSKARLWQT | 2.914 fold
5 | KTINGSGSPHSKARLYQT | 2.201 fold
6 | KTINGSGSPHSKARMAQT | 2.488 fold
7 | KTINGSGSPHSKARMGQT | 2.564 fold
8 | KTINGSGSPHSKARMQQT | 2.184 fold
9 | KTINGSGSPHSKARMTQT | 2.091 fold
10 | KTINGSGSPHSKARNGQT | 2.482 fold
11 | KTINGSGSPHSKARNKQT | 2.108 fold
12 | KTINGSGSPHSKARPFQT | 2.443 fold
13 | KTINGSGSPHSKARPYQT | 3.050 fold
14 | KTINGSGSPHSKARQQQT | 2.244 fold
15 | KTINGSGSPHSKARRLQT | 4.210 fold
16 | KTINGSGSPHSKARRQQT | 4.218 fold
17 | KTINGSGSPHSKARRSQT | 3.493 fold
18 | KTINGSGSPHSKARSKQT | 2.758 fold
19 | KTINGSGSPHSKARSRQT | 2.972 fold
20 | KTINGSGSPHSKARSYQT | 2.382 fold
21 | KTINGSGSPHSKARTRQT | 2.737 fold
22 | KTINGSGSPHSKARYSQT | 2.369 fold
23 | KTINGSGSPHSKARYVQT | 2.749 fold
24 | KTINGSGSPHSKASCRQT | 2.840 fold

Row | Sequence | Fold enrichment over TTM-001
25 | KTINGSGSPHSKASKNQT | 2.171 fold
26 | KTINGSGSPHSKASKQQT | 2.069 fold
27 | KTINGSGSPHSKASKRQT | 4.117 fold
28 | KTINGSGSPHSKASRGQT | 2.182 fold
29 | KTINGSGSPHSKASRHQT | 2.324 fold
30 | KTINGSGSPHSKASRQQT | 2.197 fold
31 | KTINGSGSPHSKASRRQT | 3.577 fold
32 | KTINGSGSPHSKATRHQT | 2.777 fold
33 | KTINGSGSPHSKATRNQT | 2.756 fold
34 | KTINGSGSPHSKATRQQT | 2.505 fold
35 | KTINGSGSPHSKATRRQT | 3.277 fold
36 | KTINGSGSPHSKAVRAQT | 2.538 fold
37 | KTINGSGSPHSKAVRNQT | 2.516 fold
38 | KTINGSGSPHSKAVRQQT | 2.052 fold
39 | KTINGSGSPHSKAVWRQT | 2.026 fold
40 | KTINGSGSPHSKAWILQT | 2.004 fold
41 | KTINGSGSPHSKAWLIQT | 2.499 fold
42 | KTINGSGSPHSKAWLLQT | 2.240 fold
43 | KTINGSGSPHSKAWLMQT | 2.015 fold
44 | KTINGSGSPHSKAWYPQT | 2.406 fold
45 | KTINGSGSPHSKAYLRQT | 3.356 fold
46 | KTINGSGSPHSKCLLQQT | 3.374 fold
47 | KTINGSGSPHSKCLNQQT | 2.594 fold
48 | KTINGSGSPHSKCLSQQT | 2.052 fold

Row | Sequence | Fold enrichment over TTM-001
49 | KTINGSGSPHSKCLTQQT | 2.644 fold
50 | KTINGSGSPHSKCSNQQT | 2.020 fold
51 | KTINGSGSPHSKCTLQQT | 2.808 fold
52 | KTINGSGSPHSKEETQQT | 2.223 fold
53 | KTINGSGSPHSKFKLQQT | 2.244 fold
54 | KTINGSGSPHSKFLFQQT | 3.173 fold
55 | KTINGSGSPHSKFSCQQT | 2.348 fold
56 | KTINGSGSPHSKGCLQQT | 2.320 fold
57 | KTINGSGSPHSKGGRQQT | 2.164 fold
58 | KTINGSGSPHSKGIRQQT | 2.497 fold
59 | KTINGSGSPHSKGRAQQT | 2.607 fold
60 | KTINGSGSPHSKGRIQQT | 2.061 fold
61 | KTINGSGSPHSKGRSQQT | 2.080 fold
62 | KTINGSGSPHSKGVRQQT | 2.115 fold
63 | KTINGSGSPHSKHLRQQT | 3.438 fold
64 | KTINGSGSPHSKIGRQQT | 2.739 fold
65 | KTINGSGSPHSKILWQQT | 2.838 fold
66 | KTINGSGSPHSKIRLQQT | 2.348 fold
67 | KTINGSGSPHSKIRPQQT | 2.080 fold
68 | KTINGSGSPHSKKGGQQT | 2.009 fold
69 | KTINGSGSPHSKKMSQQT | 2.235 fold
70 | KTINGSGSPHSKKVSQQT | 2.088 fold
71 | KTINGSGSPHSKLARQQT | 3.054 fold
72 | KTINGSGSPHSKLCLQQT | 2.562 fold

Row | Sequence | Fold enrichment over TTM-001
73 | KTINGSGSPHSKLCSQQT | 2.989 fold
74 | KTINGSGSPHSKLCVQQT | 2.659 fold
75 | KTINGSGSPHSKLFRQQT | 3.806 fold
76 | KTINGSGSPHSKLIRQQT | 3.968 fold
77 | KTINGSGSPHSKLLRQQT | 2.981 fold
78 | KTINGSGSPHSKLMRQQT | 2.056 fold
79 | KTINGSGSPHSKLNKQQT | 3.181 fold
80 | KTINGSGSPHSKLPRQQT | 2.562 fold
81 | KTINGSGSPHSKLRLQQT | 2.065 fold
82 | KTINGSGSPHSKLRMQQT | 2.106 fold
83 | KTINGSGSPHSKLRNQQT | 3.112 fold
84 | KTINGSGSPHSKLRPQQT | 2.060 fold
85 | KTINGSGSPHSKLRRQQT | 6.231 fold
86 | KTINGSGSPHSKLRSQQT | 2.309 fold
87 | KTINGSGSPHSKLSKQQT | 2.482 fold
88 | KTINGSGSPHSKLSRQQT | 2.380 fold
89 | KTINGSGSPHSKLSWQQT | 2.322 fold
90 | KTINGSGSPHSKLVRQQT | 2.801 fold
91 | KTINGSGSPHSKLWLQQT | 3.199 fold
92 | KTINGSGSPHSKLWSQQT | 2.190 fold
93 | KTINGSGSPHSKLWTQQT | 2.140 fold
94 | KTINGSGSPHSKLYMQQT | 2.015 fold
95 | KTINGSGSPHSKMRAQQT | 3.382 fold
96 | KTINGSGSPHSKMRPQQT | 2.652 fold

Row | Sequence | Fold enrichment over TTM-001
97 | KTINGSGSPHSKNLRQQT | 2.022 fold
98 | KTINGSGSPHSKNTRQQT | 2.047 fold
99 | KTINGSGSPHSKNVRQQT | 2.123 fold
100 | KTINGSGSPHSKPARQQT | 2.538 fold
101 | KTINGSGSPHSKPLRQQT | 2.844 fold
102 | KTINGSGSPHSKPRGQQT | 2.147 fold
103 | KTINGSGSPHSKPRLQQT | 3.337 fold
104 | KTINGSGSPHSKPRPQQT | 2.352 fold
105 | KTINGSGSPHSKPRSQQT | 2.235 fold
106 | KTINGSGSPHSKPRVQQT | 2.441 fold
107 | KTINGSGSPHSKPSRQQT | 2.438 fold
108 | KTINGSGSPHSKPTRQQT | 3.201 fold
109 | KTINGSGSPHSKPVRQQT | 2.529 fold
110 | KTINGSGSPHSKPWLQQT | 2.138 fold
111 | KTINGSGSPHSKQRSQQT | 2.395 fold
112 | KTINGSGSPHSKQRVQQT | 2.117 fold
113 | KTINGSGSPHSKQSRQQT | 2.156 fold
114 | KTINGSGSPHSKQTRQQT | 2.650 fold
115 | KTINGSGSPHSKRAAQQT | 3.838 fold
116 | KTINGSGSPHSKRALQQT | 2.114 fold
117 | KTINGSGSPHSKRAMQQT | 3.801 fold
118 | KTINGSGSPHSKRASQQT | 2.173 fold
119 | KTINGSGSPHSKRATQQT | 2.283 fold
120 | KTINGSGSPHSKRFLQQT | 3.359 fold

Row | Sequence | Fold enrichment over TTM-001
121 | KTINGSGSPHSKRGLQQT | 2.402 fold
122 | KTINGSGSPHSKRGTQQT | 2.022 fold
123 | KTINGSGSPHSKRILQQT | 2.801 fold
124 | KTINGSGSPHSKRINQQT | 2.173 fold
125 | KTINGSGSPHSKRIVQQT (KTINGSGSPHSKRLVQQT) | 2.151 fold
126 | KTINGSGSPHSKRLAQQT | 2.397 fold
127 | KTINGSGSPHSKRLLQQT | 2.659 fold
128 | KTINGSGSPHSKRLMQQT | 2.345 fold
129 | KTINGSGSPHSKRLPQQT | 2.279 fold
130 | KTINGSGSPHSKRLRQQT | 5.034 fold
131 | KTINGSGSPHSKRLTQQT | 2.363 fold
132 | KTINGSGSPHSKRLYQQT | 2.721 fold
133 | KTINGSGSPHSKRMSQQT | 2.931 fold
134 | KTINGSGSPHSKRNGQQT | 3.350 fold
135 | KTINGSGSPHSKRNLQQT | 3.210 fold
136 | KTINGSGSPHSKRNVQQT | 2.404 fold
137 | KTINGSGSPHSKRPFQQT | 2.076 fold
138 | KTINGSGSPHSKRRLQQT | 4.451 fold
139 | KTINGSGSPHSKRRNQQT | 2.877 fold
140 | KTINGSGSPHSKRSFQQT | 2.197 fold
141 | KTINGSGSPHSKRSIQQT | 2.063 fold
